Measurements from US20210355086A1, “PROCESS FOR PREPARING A NOVEL PHENICOL ANTIBACTERIAL AGENT” (Zoetis Services LLC, priority 2018, published 2021).

How the values were obtained:
[1] = tested on: M. haemolytica (strain 34195); assay: M. haemolytica trans-tracheal challenge study in Holstein/Holstein cross cattle; details: for back transform LSmean percent lung lesions / mortality: end of study (6 days)
[2] = tested on: A3579 (OSU-012103-BHI) strain of Mannheimia haemolytica; assay: Mannheimia haemolytica trans-tracheal challenge BRD study in dairy calves; type: in vivo; details: for percentage of lung lesion at necropsy, upper range value: control about 45%
Protocol: In one study, healthy dairy calves (N=15/group; 85-140 kg) were trans-tracheally infected -2 to -1 days with the […] (OSU-012103-BHI) strain of Mannheimia haemolytica. The challenge dose ranged from about […] to 4.9×10^8 CFU. On Day 0, BRD symptomatic animals received a single subcutaneous dose of saline (control) or test (20 or 40 mg/kg) compound. At necropsy, control animals presented with an upper range of lung lesions of about 45%. […] Therefore, a single dose of the Formula (1) compound administered subcutaneously was effective for the treatment of BRD caused by M. haemolytica in dairy calves.

[3] = tested on: naturally occurring BRD infection; assay: Naturally occurring BRD infection treatment study in cattle; type: in vivo, cattle (mixed beef and/or dairy breeds); details: for treatment success based on respiratory symptoms and attitude: control about 20%
Protocol: In a second study, cattle (mixed beef and/or dairy breeds; 180-270 kg) were treated from a naturally occurring BRD infection. Animals (n=40/group) received a single subcutaneous dose of saline (control) or test (15 mg/kg or 20 mg/kg) compound. Overall, treatment success, based on respiratory symptoms (rate, mucopurulent nasal or ocular discharge, open mouth breathing) and attitude (alert, stimuli response time, muscle weakness, ataxia, swaying) was about 37% and 47% for the 15 mg/kg and 20 mg/kg dose, respectively. In contrast, control animal success was about 20%.

[4] = tested on: Gram-positive bacteria and Gram-negative bacteria; details: background statement; cited from earlier work
[5] = T03, positive control, dose not given, subcutaneously 4-6 hours post challenge
[6] = 40 mg/kg (T02, T05) subcutaneously 4-6 hours post challenge, saline T01 35.1%
[7] = 40 mg/kg (T02, T05) subcutaneously 4-6 hours post challenge, saline T01 53.3%

Structure (SMILES) | back transform LSmean percent lung lesions [1, 5] [%] | mortality [1, 5] [%] | percentage of lung lesion at necropsy, upper range value ([2]; 20 mg/kg single subcutaneous dose on Day 0) | percentage of lung lesion at necropsy, upper range value ([2]; 40 mg/kg single subcutaneous dose on Day 0) [%] | treatment of BRD caused by M. haemolytica (conclusion) ([2]; single dose administered subcutaneously, dairy calves) | back transform LSmean percent lung lesions [1, 6] [%] | mortality [1, 7] [%] | percent lung lesions compared with T03 (Baytril) ([1]; T04 (20 mg/kg) and T05 (40 mg/kg)) | back transform LSmean percent lung lesions ([1]; T04, 20 mg/kg subcutaneously 4-6 hours post challenge, saline T01 35.1%) [%] | mortality ([1]; T04, 20 mg/kg subcutaneously 4-6 hours post challenge, saline T01 53.3%) [%] | treatment success based on respiratory symptoms and attitude ([3]; 15 mg/kg single subcutaneous dose) | treatment success based on respiratory symptoms and attitude ([3]; 20 mg/kg single subcutaneous dose) [%] | treatment effect in cattle with natural BRD infections (conclusion) ([3]; single subcutaneous dose 15 or 20 mg/kg) | antibacterial activity relative to thiamphenicol [4]
CCN1CCN(c2cc3c(cc2F)c(=O)c(C(=O)O)cn3C2CC2)CC1 [Baytril, enrofloxacin, reference compound] | 9.1 | 0 | – | – | – | – | – | – | – | – | – | – | – | –
CS(=N)(=O)c1ccc(-c2ccc([C@@H](O)[C@@H](CF)NC(=O)C(F)F)cc2)cn1 (stereo partly drawn) [Formula (1) compound, 2,2-difluoro-N-((1R,2S)-3-fluoro-1-hydroxy-1-(4-(6-(S-methylsulfonimidoyl)pyridin-3-yl)phenyl)propan-2-yl)acetamide] | – | – | about 12% | ~8 | effective | 6.8 | 0 | not different | 13.3 | 0 | about 37% | ~47 | significant treatment effect | –
CS(=O)(=O)c1ccc([C@@H](O)[C@@H](CF)NC(=O)C(Cl)Cl)cc1 [Nuflor, florfenicol, reference compound] | – | – | – | – | – | 32.1 | 46.7 | – | – | – | – | – | – | up to 10 times
